Measurements reported in patent US12606559B2, “JAK inhibitor compounds, methods for synthesizing same and use thereof” (GALDERMA HOLDING SA, priority 2020, dated 2026).
Several values for one entry are separate records, joined by “and”; a condition that tells them apart may be missing. Equal values may be shown once. Read-outs that look alike come from different tables or passages of the source.

Tests used:
[1] = molecular target: T1, Recombinant JAK1 (Homo sapiens, UniProt P23458); assay: In vitro enzyme assay (Cisbio kinase assay), JAK1; type: biochemical; conditions: ATP 300 μM; read-out: Enzymatic assay: IC50 JAK1
T1 construct: purchased Life Technologies PV4775

[2] = system: IL-6 induced Phospho-STAT3 (Tyr705) in TF-1 cells; assay: In vitro cellular pSTAT3 assay, IL-6 stimulated TF-1 cells; type: cell-based; conditions: Homo sapiens
[3] = system: IL6 signalling in hWB; assay: hWB assay, IL6; type: cell-based, human; conditions: human whole blood; read-out: hWB assay: IC50 IL6
[4] = Chrom logD pH 7.4; type: physicochemical
[5] = pKa; type: physicochemical
[6] = Human skin ex vivo: flux through skin and dermis concentration (Franz cells); type: in vitro ADME; conditions: PG/H2O cream 1 mg/mL
[7] = Thermodynamic solubility PG_H2O pH 6 2/8; type: physicochemical; conditions: PG/H2O 2/8, pH 6
[8] = Protein binding analysis (RED), rat plasma; type: in vitro ADME, male Wistar Han rat; conditions: 5 μM, RED 4 h
Description: (§1) The protein binding was assessed in plasma of Human, male balb-c mice, male Wistar Han rat, male Gottingen minipig by rapid equilibrium dialysis (RED) devices. After the plasma and buffer phosphate 50 mM pH7.4 were equilibrated at 37° C., the compound was added to plasma to reach a final concentration of 5 μM. An aliquot of plasma was withdrawn immediately. Equilibration under mild agitation was continued for 4 h. The plasma and buffer were sampled and samples were quenched with 4 volumes of acetonitrile and centrifuged. Supernatant was quantified in HPLC/MS/MS to calculate the recovery and the percentage of compound dissolved in the buffer (unbound) and bound to plasma proteins.

[9] = Protein binding analysis (RED), mouse plasma; type: in vitro ADME, male balb-c mice; conditions: 5 μM, RED 4 h
Description: as §1

[10] = Intrinsic clearance in human hepatocytes; type: in vitro ADME; conditions: 2.5 μM
Description: (§2) The intrinsic clearance was assessed in cryopreserved Hepatocytes obtained by Human livers donors of mix gender pooled together, male balb-c mouse, male Wistar Han rats and male Göttingen minipig, by looking at the parent compound disappearance. The incubations were performed using a final concentration of viable cells of 1 million/ml (viability above 70%) and test item of 2.5 μM. Incubations were followed up to 2 h. Aliquotes were withdrawn at different time points and reaction quenched with acetonitrile. After centrifugation the supernatant was analyzed by HPLC/MS to quantify the remaining amount of parent in comparison with time 0. The clearance was calculated by fitting the log of the percentage remaining with Graphpad Prism ver.7.

[11] = Intrinsic clearance in rat hepatocytes; type: in vitro ADME, male Wistar Han rats; conditions: 2.5 μM
Description: as §2

[12] = Intrinsic clearance in mouse hepatocytes; type: in vitro ADME, male balb-c mouse; conditions: 2.5 μM
Description: as §2

[13] = molecular target: T2, CYP2D6 (Homo sapiens, UniProt P10635); assay: CYP2D6 inhibition in human liver microsomes; type: in vitro ADME; conditions: dextromethorphan
T2 construct: assessed in Human pooled liver microsomes of mixed gender; from tissue; host or cells: human pooled liver microsomes
Description: After 5 min at 37° C. incubations were started with NADPH and prolonged for 10 min. The test compound was tested up to 30 μM keeping the final concentration of organic solvent was below 0.5%. The final concentration of microsomes was 0.1 mg/ml to ensure linearity during the time of the incubation. The reaction was quenched by adding 3 volume of acetonitrile. After centrifugation the supernatant was analyzed by HPLC/MS/MS for the formation of des-methyldextromethorphane selectively produced by CYP2D6 and 1′hydroxymidazolam or 6β-hydroxytestosterone, selectively produced by CYP3A. IC50 was calculated with Graphpad Prism v.7 comparing the amount of metabolite produced in presence of the test compound with that produced in absence of test item.

[14] = molecular target: T3, CYP3A4 (Homo sapiens, UniProt P08684); assay: CYP3A inhibition in human liver microsomes; type: in vitro ADME
T3 construct: assessed in Human pooled liver microsomes of mixed gender; from tissue; host or cells: human pooled liver microsomes

[15] = system: panel of 403 kinases; assay: Kinase selectivity scores S35 / S1 @ 10 μM (403 kinases); type: binding
[16] = system: 44 targets (binding and enzyme/uptake assays); assay: CEREP Safety Screen-44
Description: (§3) An in vitro pharmacology assay was conducted to assess the capability of the compounds to interact with different pharmacological targets when tested at 10 μM in different binding and enzyme/uptake assays. The included targets are indicative of potential effects in major organs and drug-drug interactions.
Compound binding was calculated as a % inhibition of the binding of a radioactively labelled ligand specific for each target. […] […].

[17] = molecular target: T4, acetylcholinesterase (h) (Homo sapiens, UniProt P22303); assay: CEREP Safety Screen-44: acetylcholinesterase (h); type: biochemical
T4 construct: CEREP
Description: as §3
Compound binding was calculated as a % inhibition of the binding of a radioactively labelled ligand specific for each target. […] Results showing an inhibition or stimulation higher than 50% are considered to represent significant effects of the test compounds.

[18] = Plasma exposure, dermis concentration and skin/plasma ratio compared to Ruxolitinib; conditions: in vivo
[19] = BALB/c ByJ Rj, in vivo
[20] = Systemic level in PD/IL6 mouse topical dose response; conditions: topical 10 mM, PG/Acetone/Transcutol
[21] = TF-1, cellular assay IL6, read-out: Free IC50
[22] = TF-1 cells, IL-6 100 ng/ml, pSTAT3, read-out: Cellular Assay: IC50 IL6
[23] = midazolam, read-out: IC50 CYP3A4 mid.
[24] = testosterone, read-out: IC50 CYP3A4 testo.

T3 sequence (P08684 2-503): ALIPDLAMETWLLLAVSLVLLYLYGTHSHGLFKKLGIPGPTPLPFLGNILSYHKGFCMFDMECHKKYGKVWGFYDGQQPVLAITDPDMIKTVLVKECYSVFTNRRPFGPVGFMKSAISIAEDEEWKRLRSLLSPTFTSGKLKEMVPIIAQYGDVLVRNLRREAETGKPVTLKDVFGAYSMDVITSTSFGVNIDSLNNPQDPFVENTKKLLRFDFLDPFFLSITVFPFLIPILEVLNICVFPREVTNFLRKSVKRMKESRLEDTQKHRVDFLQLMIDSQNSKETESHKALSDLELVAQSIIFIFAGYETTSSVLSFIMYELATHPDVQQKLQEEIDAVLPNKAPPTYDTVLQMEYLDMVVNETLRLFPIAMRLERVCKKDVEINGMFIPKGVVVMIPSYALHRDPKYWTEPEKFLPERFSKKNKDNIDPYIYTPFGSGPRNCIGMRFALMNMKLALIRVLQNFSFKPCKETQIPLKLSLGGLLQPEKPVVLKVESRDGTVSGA
T1 sequence (P23458 whole entry): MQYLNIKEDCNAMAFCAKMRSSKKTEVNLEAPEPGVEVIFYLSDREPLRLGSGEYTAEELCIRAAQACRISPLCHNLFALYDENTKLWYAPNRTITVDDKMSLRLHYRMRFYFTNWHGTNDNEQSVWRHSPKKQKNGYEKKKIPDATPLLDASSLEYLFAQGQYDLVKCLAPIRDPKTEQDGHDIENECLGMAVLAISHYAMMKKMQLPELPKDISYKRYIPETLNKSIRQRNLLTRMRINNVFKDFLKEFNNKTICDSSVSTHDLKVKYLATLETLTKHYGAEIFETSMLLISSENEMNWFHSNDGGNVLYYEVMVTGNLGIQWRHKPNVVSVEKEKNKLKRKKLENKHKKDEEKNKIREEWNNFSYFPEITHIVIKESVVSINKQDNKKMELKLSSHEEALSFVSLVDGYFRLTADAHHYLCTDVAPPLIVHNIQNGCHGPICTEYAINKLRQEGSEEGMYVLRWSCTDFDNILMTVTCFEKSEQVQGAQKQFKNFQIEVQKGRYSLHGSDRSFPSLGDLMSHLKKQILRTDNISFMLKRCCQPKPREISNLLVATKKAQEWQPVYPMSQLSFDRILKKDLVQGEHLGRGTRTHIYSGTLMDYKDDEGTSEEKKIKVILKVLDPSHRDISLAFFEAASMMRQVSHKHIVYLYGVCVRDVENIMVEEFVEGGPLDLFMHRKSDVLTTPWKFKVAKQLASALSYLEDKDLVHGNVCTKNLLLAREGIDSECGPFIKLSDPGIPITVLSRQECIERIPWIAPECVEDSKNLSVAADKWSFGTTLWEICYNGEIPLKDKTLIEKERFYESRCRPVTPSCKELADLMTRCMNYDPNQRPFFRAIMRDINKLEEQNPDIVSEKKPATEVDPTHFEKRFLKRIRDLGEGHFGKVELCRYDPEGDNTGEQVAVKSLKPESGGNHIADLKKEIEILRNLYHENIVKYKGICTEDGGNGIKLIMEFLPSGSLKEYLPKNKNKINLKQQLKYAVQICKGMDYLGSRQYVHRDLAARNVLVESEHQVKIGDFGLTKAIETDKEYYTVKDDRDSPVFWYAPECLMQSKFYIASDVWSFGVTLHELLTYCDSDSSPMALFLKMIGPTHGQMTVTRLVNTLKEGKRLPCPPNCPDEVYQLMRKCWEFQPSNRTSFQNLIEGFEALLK
T2 sequence (P10635 whole entry): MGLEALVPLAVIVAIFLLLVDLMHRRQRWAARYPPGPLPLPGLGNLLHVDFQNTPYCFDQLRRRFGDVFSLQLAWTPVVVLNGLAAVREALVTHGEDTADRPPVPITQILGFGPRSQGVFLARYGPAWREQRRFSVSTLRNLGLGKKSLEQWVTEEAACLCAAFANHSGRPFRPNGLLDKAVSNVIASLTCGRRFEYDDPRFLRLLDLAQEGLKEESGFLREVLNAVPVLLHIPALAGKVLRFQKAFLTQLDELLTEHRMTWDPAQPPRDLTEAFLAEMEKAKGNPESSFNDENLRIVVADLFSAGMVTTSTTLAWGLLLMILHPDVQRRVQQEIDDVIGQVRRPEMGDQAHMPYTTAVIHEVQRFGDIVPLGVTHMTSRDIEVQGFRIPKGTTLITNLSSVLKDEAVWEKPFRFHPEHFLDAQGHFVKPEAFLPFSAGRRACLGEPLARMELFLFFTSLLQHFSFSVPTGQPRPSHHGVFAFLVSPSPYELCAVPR
T4 sequence (P22303 32-614): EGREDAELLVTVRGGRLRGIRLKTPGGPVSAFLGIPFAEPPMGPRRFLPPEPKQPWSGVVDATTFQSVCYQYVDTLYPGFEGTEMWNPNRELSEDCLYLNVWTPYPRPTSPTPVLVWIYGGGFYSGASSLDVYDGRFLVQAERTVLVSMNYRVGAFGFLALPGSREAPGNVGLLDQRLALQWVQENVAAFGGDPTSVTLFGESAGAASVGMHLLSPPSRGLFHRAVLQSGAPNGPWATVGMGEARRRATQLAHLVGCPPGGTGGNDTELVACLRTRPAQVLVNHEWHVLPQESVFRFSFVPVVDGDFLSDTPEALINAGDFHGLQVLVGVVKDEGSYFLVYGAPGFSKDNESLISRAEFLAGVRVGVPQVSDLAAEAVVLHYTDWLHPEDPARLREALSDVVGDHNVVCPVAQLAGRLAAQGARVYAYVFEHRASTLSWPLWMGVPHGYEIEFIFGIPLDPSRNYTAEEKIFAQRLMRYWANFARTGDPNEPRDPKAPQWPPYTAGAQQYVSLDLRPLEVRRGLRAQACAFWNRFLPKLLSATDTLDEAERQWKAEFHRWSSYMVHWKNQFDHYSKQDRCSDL

| Compound | IC50 [1] [µM] | IC50 [2, 21] [µM] | IC50 [2, 22] [µM] | IC50 [3] [µM] | chromatographic logD [4] | dermis concentration [6] [µM] | measured flux 6-24 hr [6] [ng/cm^2/hr] | Thermodynamic sol PG_H2O pH 6 2/8 [7] | rFU [8] [%] | mFU [9] [%] | Intr. Clear. h heps [10] [microL/min/10 6 cells] | Intr. Clear. rheps [11] [microL/min/10 6 cells] | Intr. Clear. mheps [12] [microL/min/10 6 cells] | IC50 [13] [µM] | IC50 [14, 23] [µM] | IC50 [14, 24] [µM] | Selectivity @ 10 μM: number of kinases out of 403 [15] | further results |
| --- | --- | --- | --- | --- | --- | --- | --- | --- | --- | --- | --- | --- | --- | --- | --- | --- | --- | --- |
| CC1(C)CCN(C(=O)C[C@H]2C[C@@H](Nc3c(C#N)cnc4[nH]ccc34)C2)CC1 [Compound A, 4-(((cis)-3-(2-(4,4-dimethylpiperidin-1-yl)-2-oxoethyl)cyclobutyl)amino)-1H-pyrrolo[2,3-b]pyridine-5-carbonitrile] | 0.003 | 0.367 | 0.011 | 1.3 | 2.7 | 0.25 | 2.5 | 454 microM and 0.17 mg/mL | 3.6 | 5.2 | 264 | > 152 | 215 | 25 | 3.6 | 1.5 | 24/403 | pKa [5]: 3.7; Safety panel (Cerep): 44 targets % inh @ 10 microM, Nb of targets > 50% inh ([16]; 10 microM): 1/44; Safety panel (Cerep): target with > 50% inh @ 10 microM [17]: acetylcholinesterase; dermis concentration, times higher compared to Ruxolitinib [18]: 2.4; plasma exposure, times lower compared to Ruxolitinib [18]: 2.9; skin/plasma ratio, times higher compared to Ruxolitinib [18]: 7; PD/IL6 mouse top DR 0.01-10 mM: Systemic level @ 10 mM - 2 hrs [19]: 9.8 nM |
| CC1CCN(C(=O)C[C@H]2C[C@@H](Nc3c(C#N)cnc4[nH]ccc34)C2)CC1 [Compound B, 4-(((cis)-3-(2-(4-Methylpiperidin-1-yl)-2-oxoethyl)cyclobutyl)amino)-1H-pyrrolo[2,3-b]pyridine-5-carbonitrile] | 0.004 | 0.275 | 0.011 | 6.9 | 2.2 | 0.9 | 2.4 | 223 microM and 0.08 mg/mL | 2.8 | 5.1 | 147 | 134 | > 300 | 25 | 9.4 | 5.6 | 19/403 | Safety panel (Cerep): 44 targets % inh @ 10 microM, Nb of targets > 50% inh ([16]; 10 μM): 0/44; PD/IL6 mouse top DR 0.01-10 mM: Systemic level @ 10 mM - 2 hrs [20]: 9.8 nM |
